This passage reports GI50 and TGI results from PubChem BioAssay (NCI).

Some test systems named below: SK-MEL-28 melanoma; SK-MEL-5 melanoma; HCT-116 colon; 786-0 renal; A549 NSCLC; SR leukemia; SF-268 CNS; IGROV1 ovarian; OVCAR-4 ovarian; MALME-3M melanoma.
Holding throughout (assay): NCI-60 cell line screen, 48 h

SMILES strings stand for the structures. Values joined by “and” are separate entries in the source; they are usually repeats but may differ in a detail not shown here. Equal entries are not always repeated.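 Five concentrations, 48 hours, 96-well plates. GI50: concentration for 50% inhibition of growth. TGI marks complete inhibition of growth.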 Bounds are passed on as bounds.

As for `CC1=C2C[C@H]3[C@@H](CC=C4C[C@@H](O)CC[C@@]43C)[C@@H]2CC[C@]12O[C@@H]1C[C@H](C)CN[C@H]1[C@H]2C`, the GI50 in the test with SK-MEL-28 melanoma was > 50 µM and 48.5 µM; with SK-MEL-5 melanoma it was > 50 µM and 21.7 µM; in the test with HCT-116 colon it was 10.1 µM and 16.6 µM; in the test with 786-0 renal it was 15.5 µM and 17.3 µM; in the test with A549 NSCLC, 16.8 µM and 17.5 µM; with SR leukemia, 3.42 µM. Besides, the GI50 in the test on SF-268 CNS was 21.2 µM and 23.7 µM; in the test on IGROV1 ovarian, 40.5 µM and 17.5 µM; in the test with OVCAR-4 ovarian it was 32.1 µM and 18.8 µM; in the test on MALME-3M melanoma, 19.3 µM and 17.6 µM. In addition, the TGI with SK-MEL-28 melanoma is > 100 µM; in the test on SK-MEL-5 melanoma, > 50 µM and 53.5 µM; with HCT-116 colon, 24.7 µM and 31.8 µM; in the test on 786-0 renal, 50 µM and 33.4 µM; with A549 NSCLC, 50 µM and 39.4 µM; in the test with SR leukemia, 21.9 µM. In addition, the TGI was 50 µM and 50.9 µM with SF-268 CNS; 50 µM and 38.9 µM in the test on IGROV1 ovarian; 50 µM and 37.3 µM in the test with OVCAR-4 ovarian; 50 µM and 36 µM with MALME-3M melanoma.
Regarding `c1ccc2c(c1)-c1ccccc1C2N1CC2CCC(CC2)C1`, the TGI in the test with SK-MEL-28 melanoma is 96.1 µM; with SK-MEL-5 melanoma it was 32.6 µM; with HCT-116 colon, 46.9 µM; in the test with 786-0 renal, > 100 µM; in the test with A549 NSCLC it was > 100 µM; in the test on SR leukemia it was 50.6 µM. The TGI in the test on SF-268 CNS was 37.8 µM; in the test with IGROV1 ovarian, 69.8 µM; in the test on OVCAR-4 ovarian it was > 100 µM; with MALME-3M melanoma, 27.6 µM.
`Cc1cccc(Cl)c1NC(=O)/C=C/c1ccccc1`: the TGI in the test with SK-MEL-28 melanoma, in the test on SK-MEL-5 melanoma, in the test with HCT-116 colon, in the test on 786-0 renal, with A549 NSCLC and in the test with SR leukemia was > 100 µM in each case. In addition, the TGI in the test with SF-268 CNS was > 100 µM; with IGROV1 ovarian, > 100 µM; with OVCAR-4 ovarian, 70.1 µM; in the test with MALME-3M melanoma it was > 100 µM.
For the compound `Nc1ncn(C2C=C(CO)C(O)C2O)c(=O)n1` (stereo not given), the TGI with SK-MEL-28 melanoma, in the test on SK-MEL-5 melanoma, with HCT-116 colon, in the test with 786-0 renal, in the test with A549 NSCLC and with SR leukemia was > 100 µM in each case. Further, the TGI in the test with SF-268 CNS, in the test on IGROV1 ovarian, with OVCAR-4 ovarian and with MALME-3M melanoma was > 100 µM each time.
Take `Cc1cccc(C)c1NC(=O)CCc1nnc2s/c(=C\c3ccc(Cl)cc3)c(=O)n12`: the TGI with SK-MEL-28 melanoma is > 100 µM; with SK-MEL-5 melanoma, > 100 µM; with HCT-116 colon, 57.2 µM; in the test with 786-0 renal it was > 100 µM; with A549 NSCLC it was > 100 µM; with SR leukemia, > 100 µM. Further, the TGI with SF-268 CNS, in the test with IGROV1 ovarian, with OVCAR-4 ovarian and in the test with MALME-3M melanoma was > 100 µM each time.
Take `CC1(C)CC(n2cnc(-c3ccc(F)cc3)c2-c2ccnc(N)n2)CC(C)(C)N1`: the GI50 was > 25 µM with SK-MEL-28 melanoma; > 16.2 µM with SK-MEL-5 melanoma; 15.1 µM in the test on HCT-116 colon; > 25 µM with 786-0 renal; 12.5 µM in the test on A549 NSCLC; > 19.3 µM with SR leukemia. Moreover, the GI50 in the test on SF-268 CNS was 18.7 µM; in the test with IGROV1 ovarian, 24.7 µM; with OVCAR-4 ovarian it was 7.54 µM; in the test on MALME-3M melanoma, > 25 µM. For the same compound, the TGI in the test with SK-MEL-28 melanoma, in the test with SK-MEL-5 melanoma, with HCT-116 colon, in the test on 786-0 renal, in the test with A549 NSCLC and with SR leukemia was > 25 µM throughout. In addition, the TGI in the test on SF-268 CNS, with IGROV1 ovarian, in the test with OVCAR-4 ovarian and in the test with MALME-3M melanoma was > 25 µM throughout.
For `Cc1cc(I)cc(CN(C)CCN2CCCC2)c1O`, the GI50 in the test with SK-MEL-28 melanoma was 17.7 µM; with SK-MEL-5 melanoma it was 20.2 µM; in the test with HCT-116 colon it was 18.3 µM; in the test with 786-0 renal, 21.1 µM; in the test on A549 NSCLC, 37.9 µM; with SR leukemia it was 1.79 µM. Besides, the GI50 in the test on SF-268 CNS is 32.4 µM; in the test on IGROV1 ovarian it was 20.9 µM; in the test with OVCAR-4 ovarian it was 38.7 µM; in the test with MALME-3M melanoma, 24.3 µM. The TGI was 35.4 µM in the test on SK-MEL-28 melanoma; 34.8 µM with SK-MEL-5 melanoma; > 88.1 µM with HCT-116 colon; 59.8 µM in the test with 786-0 renal; > 100 µM with A549 NSCLC; 5.84 µM in the test on SR leukemia. In addition, the TGI in the test with SF-268 CNS is > 88.2 µM; with IGROV1 ovarian it was 53.8 µM; in the test with OVCAR-4 ovarian, > 100 µM; with MALME-3M melanoma it was 44.7 µM.
For `C=CCC(C(=O)O)c1ccccc1` (stereo not given), the TGI in the test on SK-MEL-28 melanoma, with SK-MEL-5 melanoma, in the test on HCT-116 colon, in the test on 786-0 renal, in the test with A549 NSCLC and in the test on SR leukemia was > 100 µM each time. Besides, the TGI in the test on SF-268 CNS, in the test on IGROV1 ovarian, in the test with OVCAR-4 ovarian and in the test with MALME-3M melanoma was > 100 µM in each case.
Take `CC(=O)N/C(=C\c1cccc([N+](=O)[O-])c1)c1nc2c3c(ccc2[nH]1)C(=O)c1ccccc1C3=O`: the TGI in the test on SK-MEL-28 melanoma, in the test on SK-MEL-5 melanoma, in the test on HCT-116 colon, in the test with 786-0 renal, in the test with A549 NSCLC and in the test on SR leukemia was > 100 µM throughout. Besides, the TGI with SF-268 CNS, in the test with IGROV1 ovarian, with OVCAR-4 ovarian and in the test with MALME-3M melanoma was > 100 µM each time.
In the case of `O=C1NC(=S)NC(=O)C1=Cc1cccc2cc3ccccc3cc12`, the TGI is 6.58 µM with SK-MEL-28 melanoma; 5.23 µM in the test on SK-MEL-5 melanoma; 3.74 µM in the test with HCT-116 colon; 3.42 µM with 786-0 renal; 12.7 µM in the test on A549 NSCLC; > 20 µM in the test on SR leukemia. Further, the TGI with SF-268 CNS came to 4.73 µM; in the test with IGROV1 ovarian it was 3.61 µM; in the test with OVCAR-4 ovarian, 4.75 µM; in the test on MALME-3M melanoma it was 4.17 µM.
Take `COc1ccc(C(=O)OC2C=COC(C)C2OC(=O)c2ccc(OC)cc2)cc1` (stereo not given): the TGI was 33.2 µM in the test with SK-MEL-28 melanoma; 32.1 µM with SK-MEL-5 melanoma; 21.8 µM with HCT-116 colon; > 86.6 µM in the test with 786-0 renal; > 100 µM in the test on A549 NSCLC; 61.9 µM in the test with SR leukemia. Moreover, the TGI in the test with SF-268 CNS is 44.7 µM; in the test on IGROV1 ovarian, > 83.6 µM; with OVCAR-4 ovarian, > 63.2 µM; with MALME-3M melanoma, > 47.1 µM.
